Patent US20160346249A1 (priority 2012, published 2016)

Columns and labels:
human recombinant MAO-B = target: T1, human recombinant MAO-B (Homo sapiens, UniProt P27338); test: Metabolism by recombinant MAO-B; assay type: in vitro ADME
T1 construct: purchased BD Biosciences, Woburn, Mass
T1 sequence (P27338 1-520): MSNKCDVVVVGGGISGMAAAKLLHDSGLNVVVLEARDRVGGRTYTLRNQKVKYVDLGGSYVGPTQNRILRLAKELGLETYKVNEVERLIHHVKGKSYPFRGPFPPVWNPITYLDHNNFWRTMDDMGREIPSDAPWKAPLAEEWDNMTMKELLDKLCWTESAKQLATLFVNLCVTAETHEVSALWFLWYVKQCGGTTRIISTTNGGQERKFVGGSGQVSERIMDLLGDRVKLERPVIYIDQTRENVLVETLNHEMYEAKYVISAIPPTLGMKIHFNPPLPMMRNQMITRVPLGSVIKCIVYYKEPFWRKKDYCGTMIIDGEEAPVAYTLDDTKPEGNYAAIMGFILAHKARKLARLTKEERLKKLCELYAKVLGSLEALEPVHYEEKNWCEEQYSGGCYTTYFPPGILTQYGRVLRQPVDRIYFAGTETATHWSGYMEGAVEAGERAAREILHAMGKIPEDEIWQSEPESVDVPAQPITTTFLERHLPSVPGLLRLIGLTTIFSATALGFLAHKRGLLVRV
Procedure: Incubation systems (ca. 0.2 mL) of human recombinant MAO-A (1.0 mg/mL) and MAO-B (1.0 mg/mL) (BD Biosciences, Woburn, Mass.) were prepared in triplicated 0.1 M potassium phosphate buffer (pH 7.4) (BD Biosciences, Woburn, Mass.). […] The negative samples were prepared as described above, with the exception that instead of HLM, HLmito, or recombinant enzymes, water was added to the incubation mixture.

[1] = Multiple-dose safety and PK study 25 mg BID and 50 mg BID for 10 days; assay type: in vivo, human; details: for drug accumulation: 10 days; for Cmax / Tmax / half-life / AUC(0-t): male, human, in vivo, healthy male subjects, mean (SD); for AUC(0-t): read-out: AUC0-12
From the text: Twenty-two male subjects were randomized for the study and received study medication.

[2] = Female rat fertility study
Procedure: Physical signs, body weight, and food consumption were recorded periodically. Females were housed for up to 20 nights 1:1 with untreated males following 3 weeks of treatment. During cohabitation, vaginal lavages were performed daily. The presence of sperm in the lavage or a vaginal plug was considered positive evidence of mating. […] The day of confirmed mating was considered GD 0. Females with a confirmed mating were euthanized between GD 15 and 17. The uterus of each female was examined to determine pregnancy status. If there was no gross evidence of pregnancy, the uterus was stained with ammonium sulfide to visualize any early implantation sites. Corpora lutea per female were counted. Uterine implantations were counted, and each was classified as a live fetus, dead fetus, or a resorption. Fetuses were euthanized by rapid induction of hypothermia and discarded without further examination.

[3] = Rat CNS study (functional observational battery, locomotor activity); details: Crl:CD(SD)IGS BR, in vivo; for mean rearing counts lower than control, 2-minute open field: po; for mean rearing counts lower than control, 2-minute open field / mean urination values higher than control: 1 h
Procedure: There were eight animals of each gender per group. Functional observational battery (FOB) assessments and automated 1-hour locomotor activity data were recorded for all animals 7 days prior to dose administration (pre-test), and again beginning 1 hour following dosing on Day 0. Following completion of the FOB and locomotor activity evaluations, all animals were euthanized and discarded.

[4] = Single-dose intravenous rat toxicology study; details: Crl:CD(SD)IGS BR, in vivo
Procedure: Clinical observations, body weights, and food consumption were noted periodically. All animals were euthanized following a minimum 13-day non-dosing (recovery) period. Clinical pathology evaluations (hematology and serum chemistry) were performed on all rats at the time of necropsy and selected organs were weighed. No microscopic examinations were performed.

[5] = Rabbit pilot developmental toxicity study; assay type: in vivo; details: 30 mg/kg/day, GD 14
Procedure: On GD 29, a laparohysterectomy was performed on each surviving female.

[6] = Single-dose (25 mg) food effect crossover study in 24 men (DOV 947-003); assay type: in vivo, human; details: for AUC(0-inf) / AUC(0-t) / Cmax / Tmax / half-life: male, human, in vivo, po, single oral dose 25 mg, 24 healthy male subjects
[7] = Rat pulmonary function study; assay type: in vivo; details: for animals with test article-related clinical observations: 6 hours post-dosing
Procedure: There were eight male rats per group. Clinical examinations were performed daily, and detailed physical examinations were performed prior to dosing and again following pulmonary functional assessments. Four replicates of 2 animals from each treatment group were evaluated over a 2-week period. Following dose administration, the rats were placed in a head-out neck-sealed plethysmograph for measurement of pulmonary function parameters (respiratory rate, tidal volume, and calculated minute volume). Pulmonary function data were collected for at least 60 minutes prior to dosing (Day −1) and for at least 6 hours post-dosing on Day 0.

With `O=C1NCC2(c3ccc(Cl)c(Cl)c3)CC12` (stereo not drawn) [EB-10101, 5-(3,4-dichloro-phenyl)-3-aza-bicyclo[3.1.0]hexan-2-one] as the molecule, how does the “MAO-B mediation of formation” value (human recombinant MAO-B) read?
The value was “not MAO-B mediated”.

With `Clc1ccc([C@]23CNC[C@H]2C3)cc1Cl` [amitifadine, (+)-1-(3,4-dichlorophenyl)-3-azabicyclo[3.1.0]hexane] as the molecule, how does the drug accumulation ([1]; 25 mg BID) read?
Its drug accumulation is 1.27.

What about the drug accumulation ([1]; 50 mg BID) of the same molecule?
Its drug accumulation is 1.44.

And the Cmax ([1]; 25 mg, 25 mg BID, Day 1)?
The Cmax was 327 ng/mL.

And the Tmax ([1]; 25 mg, 25 mg BID, Day 1)?
Its Tmax is 0.9 h.

And the half-life ([1]; 25 mg, 25 mg BID, Day 1)?
The half-life was 3.27 h.

And the AUC(0-t) ([1]; 25 mg, 25 mg BID, Day 1)?
The AUC(0-t) was 1360 ng·h/mL.

And the Cmax ([1]; 25 mg, 25 mg BID, Day 10)?
The Cmax was 388 ng/mL.

And the Tmax ([1]; 25 mg, 25 mg BID, Day 10)?
Its Tmax is 1.07 h.

And the half-life ([1]; 25 mg, 25 mg BID, Day 10)?
Its half-life is 3.34 h.

And the AUC(0-t) ([1]; 25 mg, 25 mg BID, Day 10)?
The AUC(0-t) was 1700 ng·h/mL.

What about the Cmax ([1]; 50 mg, 50 mg BID, Day 1) of the same molecule?
The Cmax was 496 ng/mL.

What about the half-life ([1]; 50 mg, 50 mg BID, Day 1) of the same molecule?
Its half-life is 3.19 h.

What about the AUC(0-t) ([1]; 50 mg, 50 mg BID, Day 1) of the same molecule?
Its AUC(0-t) is 2240 ng·h/mL.

And the Cmax ([1]; 50 mg, 50 mg BID, Day 10)?
Its Cmax is 744 ng/mL.

And the Tmax ([1]; 50 mg, 50 mg BID, Day 10)?
Its Tmax is 1.18 h.

And the half-life ([1]; 50 mg, 50 mg BID, Day 10)?
The half-life was 2.97 h.

And the AUC(0-t) ([1]; 50 mg, 50 mg BID, Day 10)?
Its AUC(0-t) is 3200 ng·h/mL.

What about the body weight loss ([2]; 34 mg/kg/day, first 4 days) of the same molecule?
Its body weight loss is -26 g.

And the decreased food consumption ([2]; 34 mg/kg/day, first 4 days)?
Its decreased food consumption is −50%.

And the NOEL reproductive performance ([2]; female rats)?
Its NOEL reproductive performance is at least 34 mg/kg/day.

And the NOEL general toxicity ([2]; female, Crl:CD(SD), rat, in vivo)?
Its NOEL general toxicity is 9 mg/kg/day.

And the NOAEL ([3]; both sexes, single oral gavage, read-out: NOAEL for CNS toxicity)?
The NOAEL was 100 mg/kg.

And the “mean rearing counts lower than control, 2-minute open field” value (from here on “mean rearing counts lower than control”) ([3]; female, 30 mg/kg)?
The value was 67.1%.

What about the “mean rearing counts lower than control” value ([3]; female, 100 mg/kg) of the same molecule?
The value was 78.6%.

And the “mean urination values higher than control” value ([3]; male, 10 mg/kg)?
The value was “approximately 3 fold”.

And the “mean urination values higher than control” value ([3]; male, 30 mg/kg)?
Its value is “approximately 3 fold”.

And the “mean urination values higher than control” value ([3]; male, 100 mg/kg)?
Its value is about 5 fold.

What about the “mean rearing counts lower than control” value ([3]; male, 100 mg/kg) of the same molecule?
Its value is 56.5%.

And the NOAEL at 13 days ([4]; female rats)?
Its NOAEL at 13 days is 5 mg/kg.

What about the NOAEL at 13 days ([4]; male rats) of the same molecule?
The NOAEL at 13 days was 1.5 mg/kg.

And the maternal outcome [5]?
Its maternal outcome is “all females in the 30 mg/kg/day group were euthanized on GD 14”.

And the “effect of food on exposure” value ([6]; fed vs fasted)?
The value was “no effect of food on exposure”.

And the AUC(0-inf) ([6]; Fasted)?
The AUC(0-inf) was 1290 ng·h/mL.

And the AUC(0-t) ([6]; Fasted)?
The AUC(0-t) was 1200 ng·h/mL.

What about the Cmax ([6]; Fasted) of the same molecule?
Its Cmax is 272 ng/mL.

And the Tmax ([6]; Fasted)?
Its Tmax is 0.98 h.

What about the half-life ([6]; Fasted) of the same molecule?
The half-life was 3.42 h.

What about the AUC(0-inf) ([6]; Fed) of the same molecule?
The AUC(0-inf) was 1420 ng·h/mL.

And the AUC(0-t) ([6]; Fed)?
The AUC(0-t) was 1320 ng·h/mL.

And the Cmax ([6]; Fed)?
The Cmax was 224 ng/mL.

What about the Tmax ([6]; Fed) of the same molecule?
Its Tmax is 2.57 h.

And the half-life ([6]; Fed)?
The half-life was 3.71 h.

What about the “animals with test article-related clinical observations” value ([7]; 30 mg/kg) of the same molecule?
The value was “⅜”.

What about the increased respiratory frequency ([7]; 100 mg/kg, 16 to 30 minutes post-dosing) of the same molecule?
Its increased respiratory frequency is 23%.

And the “animals with test article-related clinical observations” value ([7]; 100 mg/kg)?
The value was 6/8.

And the elevated respiratory frequency ([7]; 100 mg/kg, later post-treatment intervals)?
The elevated respiratory frequency was at least 33%.

What about the NOAEL ([7]; male, Crl:CD(SD)IGS BR, rat, in vivo, single oral gavage) of the same molecule?
The NOAEL was 30 mg/kg.
